# According to publication PMC11403612, “Preparation and Preclinical Characterization of a Simple Ester for Dual Exogenous Supply of Lactate and Beta-hydroxybutyrate” (Journal of Agricultural and Food Chemistry, 2024):
# Experiment: Stability of LaKe in plasma, human
# Format: in vitro ADME
# Details: thawed); human plasma (frozen)
# Procedure: The in vitro stability of LaKe was evaluated following incubation in simulated gastric fluid (SGF), simulated intestinal fluid (SIF), fresh and frozen plasma (rats and humans, respectively), and the presence of hepatocytes (rats and humans) and liver microsomes (rats and humans). At the chosen time points, the mixtures were analyzed by LC-MS/MS to quantify the remaining LaKe and all assays included at least one control compound with known pharmacokinetic properties. […]
# centrifuged at 4000 rpm, 4℃ for 20 min. 60 μL of supernatant was mixed with 180 μL of purified water for subsequent LC/MS/MS analysis.
# LC-MS/MS Condition: ACQUITY UPLC BEH C18 1.7um 2.1 * 50mm Column (Part No.186002350). Mobile phase: A: 0.1% Formic Acid in Water; B: 0.1% Formic Acid in ACN.
# Stability of LaKe in simulated intestinal fluid (SIF)
# Preparation of SIF-solution: 0.136 g KH2PO4 and 0.064 g pancreatin was dissolved H2O to a total volume of solution 20 mL. The pH of the test solution was adjusted to 6.80 ± 0.05.
# Procedure: 2 μL of a 10mg/ml working solution of LaKe in DMSO was spiked into 96-deep-well plates corresponding to timepoints T0, T60, T120, T360 and T1440. Experiments were performed in duplicate. 198 μL of SIF solution was then transferred to the individual wells (except T0) to reach 0.1mg/ml as the final test concentration for each time point (60, 120, 360, 1440 minutes). […]
smiles,measurement,value
"CC(O)CCOC(=O)C(C)O (stereo not shown) [LaKe, 3-hydroxybutyl 2-hydroxypropanoate]",half-life at 2 µM,< 30 min
